Test [1] has as its target T1, farnesyl protein transferase (FPT) (Rattus norvegicus, UniProt Q02293+Q04631).
T1 construct: were partially purified from rat brain by ammonium sulfate fractionation followed by Q-Sepharose; from tissue; host or cells: rat brain
Description: In vitro enzyme assay: inhibition of farnesyl protein transferase (transfer of [3H]farnesyl to Ras-CVLS). It counts as biochemical.

For a further test, the system named is Human tumor cells. Description: Soft Agar Assay (anchorage-independent growth). It counts as cell-based. Particulars: range over 5 tumor cell lines (K ras NIH 3T3, H ras NIH 3T3, HTB 177, A549, HTB 175), read-out: IC50 for each cell line.
The test system of test [2] is Ras-CVLL in COS monkey kidney cells. Description: COS cell assay: geranylgeranylation of Ras-CVLL (Western blot). It counts as cell-based. For orientation: In western blotting, separated proteins are transferred to a membrane and probed.
Setting [3] is: Table 1, partially purified rat brain FPT, Ras-CVLS, read-out: FPT IC50.
The mark [4] stands for this setting: Table 2, comparison with GGPT, read-out: ENZYME INHIBITION FPT IC50.
Where [5] appears, read: FPT IC50, Table 1, partially purified rat brain FPT, Ras-CVLS.

Ten molecules from patent EP1019392B1, “TRICYCLIC AMIDES USEFUL FOR INHIBITION OF G-PROTEIN FUNCTION AND FOR TREATMENT OF PROLIFERATIVE DISEASES” (SCHERING CORPORATION, priority 1995, dated 1997) can be followed below.

Values joined by “and” are separate entries in the source; they are usually repeats but may differ in a detail not shown here. Equal values may be shown once. Read-outs that look alike come from different tables or passages of the source.

Broadly, the IC50 is the concentration at which inhibition is half-maximal.

For the molecule `NC(=O)N1CCC(CC(=O)N2CCC(C3c4ncc(Br)cc4CCc4cc(Cl)cc(Cl)c43)CC2)CC1` (single isomer, unassigned) [Example 18], the IC50 was 3.1 nM in test [1] (setting [3]), 3.1 nM in test [1] (setting [4]) and 175 to 800 nM in the test with Human tumor cells.

`O=C(Cc1cc[n+]([O-])cc1)N1CCN([C@H]2c3ncc(Br)cc3CCc3cc(Cl)cc(Br)c32)CC1` [Example 11A]: the IC50 in test [1] (setting [3]) is 1.8 nM and 2.1 nM; in test [1] (setting [4]), 1.8 nM and 2.1 nM.

Consider `O=C(Cc1cc[n+]([O-])cc1)N1CCN([C@H]2c3ccc(Cl)c(Br)c3CCc3cc(Br)cnc32)CC1` [Example 5], for which the IC50 in test [1] (setting [3]) and in test [1] (setting [4]) was 2.3 nM throughout.

With `O=C(Cc1cc[n+]([O-])cc1)N1CCC(=C2c3ccc(Cl)c(Br)c3CCc3cc(Br)cnc32)CC1` [Example 2], the IC50 in test [1] (setting [3]) was 10 nM and 16 nM; in test [1] (setting [4]) it was 10 nM and 16 nM. The “did not block the geranylgeranylation of Ras-CVLL at concentrations up to” value in test [2] is reported as greater than 33 µM.

For the molecule `O=C(Cc1cc[n+]([O-])cc1)N1CCN([C@@H]2c3ccc(Cl)cc3CCc3cc(Br)cnc32)CC1` [Example 16A], in test [1] (setting [5]), the IC50 is 32 nM and 26 nM.

Consider `O=C(Cc1cc[n+]([O-])cc1)N1CCC([C@H]2c3ncc(Br)cc3CCc3cc(Cl)cc(Br)c32)CC1` [Example 9], for which the IC50 in test [1] (setting [3]) and in test [1] (setting [4]) was 1.3 nM in each case.

Regarding `O=C(Cc1cc[n+]([O-])cc1)N1CCC(C2c3ccc(Cl)c(Br)c3CCc3cc(Br)cnc32)CC1` (single isomer, unassigned) [Example 14A], the IC50 in test [1] (setting [3]) and in test [1] (setting [4]) was 2.6 nM throughout.

On to `O=C(Cc1cc[n+]([O-])cc1)N1CCN([C@H]2c3ccc(Cl)cc3CCc3cc(Br)cnc32)CC1` [Example 16B], for which the 50% inhibitory concentration (IC50) in test [1] (setting [5]) is 38 nM and 23 nM.

With `O=C(Cc1cc[n+]([O-])cc1)N1CCC(=C2c3ncc(Br)cc3CCc3cc(Cl)cc(Br)c32)CC1` (racemic) [Example 7], the IC50 in test [1] (setting [3]) and in test [1] (setting [4]) was 12 nM throughout.

With `NC(=O)N1CCC(CC(=O)N2CCC(C3c4ccc(Cl)c(Br)c4CCc4cc(Br)cnc43)CC2)CC1` (single isomer, unassigned) [Example 13], the IC50 in test [1] (setting [3]) and in test [1] (setting [4]) was 5 nM in each case.
